The species named for data set [1] is Homo sapiens. The experiment in a line: Inhibition of P-gp in human SW620/AD300 cells assessed as potentiation of taxol-induced cytotoxicity by measuring fold reduction in taxol IC50. It counts as cell-based.
The subject of data set [2] is K562/A02. The data set can be described thus: Inhibition of P-gp in human K562/A02 cells assessed as potentiation of doxorubicin-induced cytotoxicity by measuring fold reduction in doxorubicin IC50. The format is cell-based.
For data set [3], the species on record is Homo sapiens. The data set can be described thus: Inhibition of P-gp in human Caco2 cells assessed as potentiation of doxorubicin-induced cytotoxicity by measuring fold reduction in doxorubicin IC50. The format is cell-based.
Data set [4] is filed under the species Homo sapiens. The experiment in a line: Inhibition of P-gp in human KBV1 cells assessed as potentiation of doxorubicin-induced cytotoxicity by measuring fold reduction in doxorubicin IC50 at 5 uM. It counts as cell-based.
The species named for data set [5] is Homo sapiens. The data set can be described thus: Inhibition of P-gp in human KBV1 cells assessed as potentiation of vinblastine-induced cytotoxicity by measuring fold reduction in vinblastine IC50 at 5 uM. The format is cell-based.
Data set [6] is filed under the species Homo sapiens. The experiment in a line: Inhibition of P-gp in human KBV1 cells assessed as potentiation of paclitaxel-induced cytotoxicity by measuring fold reduction in paclitaxel IC50 at 5 uM. It counts as cell-based.
Data set [7] is described as follows: Inhibition of P-gp in human HCT116/VM46 cells assessed as potentiation of paclitaxel-induced cytotoxicity. The settings on record: HCT-116/VM46. The format is cell-based.
Data set [8] is filed under the species Homo sapiens. The data set can be described thus: Inhibition of P-gp in human CCRF-CEM/VLB100 cells assessed as potentiation of vincristine-induced cytotoxicity by measuring fold reduction in vincristine IC50.
The species named for data set [9] is Homo sapiens. The experiment in a line: Inhibition of P-gp in human KBV1 cells assessed as potentiation of vinblastine-induced cytotoxicity by measuring fold reduction in vinblastine IC50 at 50 uM. It counts as cell-based.
The species named for data set [10] is Homo sapiens. The data set can be described thus: Inhibition of P-gp in human A549/DDP cells assessed as potentiation of doxorubicin-induced cytotoxicity by measuring fold reduction in doxorubicin IC50 at 5 uM. It counts as cell-based.
The species named for data set [11] is Homo sapiens. The data set can be described thus: Inhibition of P-gp in human K562/DOX cells assessed as potentiation of doxorubicin-induced cytotoxicity by measuring fold reduction in doxorubicin IC50 at 5 uM. The format is cell-based.
The species entered for data set [12] is Homo sapiens. The experiment in a line: Inhibition of P-gp in human A549/DDP cells assessed as potentiation of […]-induced cytotoxicity by measuring fold reduction in doxorubicin IC50 at 5 uM. The format is cell-based.
Data set [13] is filed under the species Homo sapiens. The experiment in a line: Inhibition of P-gp in human HCT116/VM46 cells assessed as potentiation of vinblastine-induced cytotoxicity by measuring fold reduction in vinblastine IC50. It counts as cell-based.
Data set [14] is filed under the species Homo sapiens. The experiment in a line: Inhibition of P-gp in human SW620/DOX300 cells assessed as potentiation of doxorubicin-induced cytotoxicity by measuring fold reduction in doxorubicin IC50. The format is cell-based.
In data set [15] the target is T1, ATP-dependent translocase ABCB1 (Homo sapiens, UniProt P08183). The data set can be described thus: Inhibition of MDR1 in human KB-C2 cells assessed as potentiation of vincristine-induced cytotoxicity by measuring fold reduction in vincristine IC50. The format is cell-based.
T1 sequence (P08183 whole entry): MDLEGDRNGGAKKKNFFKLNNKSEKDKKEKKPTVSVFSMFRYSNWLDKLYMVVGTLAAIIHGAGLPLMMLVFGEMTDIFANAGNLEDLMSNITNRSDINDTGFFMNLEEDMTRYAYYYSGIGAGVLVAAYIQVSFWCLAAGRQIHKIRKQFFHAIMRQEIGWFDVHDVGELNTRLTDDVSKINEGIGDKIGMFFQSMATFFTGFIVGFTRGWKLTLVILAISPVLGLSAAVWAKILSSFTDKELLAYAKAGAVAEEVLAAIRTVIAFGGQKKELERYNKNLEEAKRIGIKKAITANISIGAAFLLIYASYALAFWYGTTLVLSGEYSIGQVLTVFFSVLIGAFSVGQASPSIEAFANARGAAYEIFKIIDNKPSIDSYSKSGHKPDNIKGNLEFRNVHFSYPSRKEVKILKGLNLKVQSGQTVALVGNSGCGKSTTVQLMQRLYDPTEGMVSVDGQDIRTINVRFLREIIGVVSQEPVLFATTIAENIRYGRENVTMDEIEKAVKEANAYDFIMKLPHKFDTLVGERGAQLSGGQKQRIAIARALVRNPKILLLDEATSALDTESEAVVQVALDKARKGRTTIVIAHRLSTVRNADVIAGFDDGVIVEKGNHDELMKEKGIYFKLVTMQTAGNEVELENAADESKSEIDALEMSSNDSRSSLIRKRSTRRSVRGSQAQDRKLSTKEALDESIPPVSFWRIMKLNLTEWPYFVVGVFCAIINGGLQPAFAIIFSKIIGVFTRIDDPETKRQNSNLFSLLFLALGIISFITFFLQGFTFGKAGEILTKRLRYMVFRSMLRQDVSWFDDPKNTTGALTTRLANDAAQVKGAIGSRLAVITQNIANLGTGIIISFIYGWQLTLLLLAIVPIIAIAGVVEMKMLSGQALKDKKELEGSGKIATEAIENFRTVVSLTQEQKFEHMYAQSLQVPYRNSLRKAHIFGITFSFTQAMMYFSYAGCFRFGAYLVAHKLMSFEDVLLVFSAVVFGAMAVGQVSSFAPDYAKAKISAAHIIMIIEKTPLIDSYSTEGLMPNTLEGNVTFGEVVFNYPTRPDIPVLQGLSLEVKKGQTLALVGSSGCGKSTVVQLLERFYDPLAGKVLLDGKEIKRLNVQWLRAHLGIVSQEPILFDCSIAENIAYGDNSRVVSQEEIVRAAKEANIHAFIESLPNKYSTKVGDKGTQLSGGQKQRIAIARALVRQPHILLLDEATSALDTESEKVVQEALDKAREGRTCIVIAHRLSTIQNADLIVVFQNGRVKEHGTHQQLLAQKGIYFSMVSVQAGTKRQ
For data set [16], the species on record is Homo sapiens. The data set can be described thus: Inhibition of P-gp in human MCF7/DOX cells assessed as potentiation of doxorubicin-induced cytotoxicity by measuring doxorubicin ED50. The format is cell-based.
Data set [17] deals with MES-SA/Dx5. The data set can be described thus: Inhibition of P-gp in human MES-SA/Dx5 cells assessed as potentiation of paclitaxel-induced cytotoxicity. The format is cell-based.
For data set [18], the species on record is Homo sapiens. The data set can be described thus: Inhibition of P-gp in human lung cancer cells assessed as potentiation of doxorubicin-induced cytotoxicity by measuring fold reduction in doxorubicin IC50. The format is cell-based.
The species entered for data set [19] is Homo sapiens. The experiment in a line: Inhibition of MRP in P-gp null human lung cancer cells assessed as potentiation of doxorubicin-induced cytotoxicity by measuring fold reduction in doxorubicin IC50.
The species entered for data set [20] is Homo sapiens. The data set can be described thus: Inhibition of MRP in human lung cancer cells assessed as potentiation of doxorubicin-induced cytotoxicity by measuring fold reduction in doxorubicin IC50. The format is cell-based.
In data set [21] the target is T1, ATP-dependent translocase ABCB1. The data set can be described thus: Inhibition of human MDR1 expressed in mouse L5178 cells assessed as accumulation of Rh123 by measuring fluorescence activity ratio preincubated for 10 mins followed by Rh123 addition measured after 20 mins by FACS analysis. It counts as cell-based. On the technique in general: Flow cytometry measures light scatter and fluorescence of single cells or particles in a stream.

Turning to `C=C/C=C\[C@H](C)[C@H](OC(N)=O)[C@@H](C)[C@H](O)[C@@H](C)C/C(C)=C\[C@H](C)[C@@H](O)[C@@H](C)/C=C\[C@@H](O)C[C@@H]1OC(=O)[C@H](C)[C@@H](O)[C@H]1C`, the fold change (FC) in data set [1] turned out to be 4.
`CCCCCCCCC(CC(=O)CCCCCCC(=O)O)n1cnc2c(N)ncnc21` (configuration not stated): the fold change (FC) in [2] was 1.5 to 2.7.
As to `C[n+]1cc2c3c(ccc2c2ccc4cc5c(cc4c21)OCO5)OCO3`, the fold change (FC) in data set [3] came out at 18.
As to `CCCC[C@@]12[C@@H]3C[C@H]4[C@H]5[C@H](C)/C(=C6/OC(=O)C(C)=C6OC)O[C@]5(O3)[C@@H]1CCN42`, the fold change (FC) in data set [4] was 4 to 5; in data set [5], 5; in [6], 7.
Usually EC50 stands for the concentration needed to bring the measured effect to its halfway point. `COc1ccc(C2=C(c3ccc(OC)c(OC)c3)C(=O)N(CCc3cc(Br)c(OCc4ccccc4)c(OCCN4CCOCC4)c3)C2=O)cc1OC`: the EC50 in data set [7] turned out to be 423 nM.
As to `CCCCCC(CC(C)=O)n1cnc2c(N)ncnc21` (configuration not stated), in [2], the fold change (FC) fell in the range of 1.5 to 2.7.
For `C=CC(C)(C)[C@@]12C[C@H]3c4nc5ccccc5c(=O)n4[C@H](C)C(=O)N3[C@@H]1N(C(C)=O)c1ccccc12`, the fold change (FC) in data set [8] came to 700.
On to `COC1=C(C)C(=O)O/C1=C1\O[C@@]23CCCN4CCC[C@@H](O2)[C@H]4[C@H]3[C@@H]1C`, for which, in data set [9], the fold change (FC) came out at 4.
Take `C=CC(C)(C)[C@]12c3ccccc3N(C(C)=O)[C@H]1N1C(=O)[C@@H](C)n3c(nc4ccccc4c3=O)[C@@H]1C2O` (some centres not stated): the fold change (FC) was 8 in data set [10], 5 in data set [11] and 8 in [12].
Turning to `COc1ccc(/C=C/NC(=O)c2c(-c3cc(OC)c(OC)c(OC)c3)c(-c3cc(OC)c(OC)c(OC)c3)c(C(=O)N/C=C/c3ccc(OC)cc3)n2CCc2ccc(OC)cc2)cc1`, the fold change (FC) in data set [13] was found to be 66.
As for `COC(=O)c1c(-c2ccc(O)cc2)c(-c2ccc(O)cc2)cn1CC(=O)c1ccc(OC)cc1`, in [14], the fold change (FC) came out at 5.
As to `COc1cc2c(cc1O)CCN[C@]21CS[C@@H]2c3c(OC(C)=O)c(C)c4c(c3[C@H](COC1=O)N1[C@@H]2[C@H]2c3c(cc(C)c(OC)c3O)C[C@@H]([C@@H]1O)N2C)OCO4` [TRABECTEDIN], in data set [15], the “fold change (FC)” value was found to be 16.
On to `CC(/C=C/C#C/C=C/C=C(\C)C(=O)N[C@@H](C)CO)=C\[C@@H](C)[C@@H](O)/C(C)=C/[C@@H](C)CCc1ccccc1`, for which the ED50 in data set [16] is 0.2 nM.
As to `COc1ccc2c(c1)C(=O)c1c(OC)c(OC)c(OC)c3ccnc-2c13`, the ED50 in data set [17] was found to be 0.03 µg/mL.
In the case of `C=CC(C)(C)[C@@]12C[C@H]3c4nc5ccccc5c(=O)n4CC(=O)N3[C@@H]1N(C(C)=O)c1ccccc12`, the figures for the fold change (FC) in data set [18], in [19] and in [20] were 200, 15 and 66, respectively.
As for `Cn1c2ccccc2c(=O)c2c(O)cc3c(c21)CC(C(C)(O)CO)O3` (configuration not stated) [GRAVACRIDONDIOL], the Ratio in [21] is on record as 1.72.

The record behind these values is ChEMBL document CHEMBL4190243, “Natural alkaloids as P-gp inhibitors for multidrug resistance reversal in cancer” (Eur J Med Chem, 2017).
